Source: patent publication US9227971B2, “Pyrazolo[1,5-a]pyrimidine compounds as mTOR inhibitors” (Merck Sharp & Dohme Corp., priority 2010, dated 2016)

Key:
[1] = test system: phosphorylated 4E-BP1 Thr37/46 (p4E-BP1 Thr37/46), mTORC1 activity, PC3 cells; assay: mTOR target engagement assay, immunofluorescent cell-based, p4E-BP1 Thr37/46 readout (mTORC1 activity); conditions: Homo sapiens, PC-3, Table 6-1; PC3 cells; read-out: p4E-BP1 Thr37/46 IC50
In short: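 Read-out is fluorescence intensity of immunostained p4E-BP1 Thr37/46 in fixed PC3 cells, fitted to a logistic curve for IC50 with DMSO-only wells as top. Cells had been exposed to serial compound dilutions for ninety minutes at 37° C in 5% FBS medium with 0.25% DMSO.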

[2] = test system: phosphorylated AKT Ser473 (pAKT S473), mTORC2 activity, PC3 cells; assay: mTOR target engagement assay, immunofluorescent cell-based, pAKT S473 readout (mTORC2 activity); conditions: Homo sapiens, PC-3, Table 6-1; PC3 cells
In short: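 After blocking, cells were stained overnight at 4 °C with anti-pAKT S473 antibody, then a fluorescent secondary; inhibition was read as reduced fluorescence intensity.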

SMILES | IC50 [1] | IC50 [2]
CC(=O)c1c([C@@H]2C[C@H]3CC[C@@H](C2)N3C(=O)C(C)F)nc2c(-c3ccc(-c4ncc[nH]4)nc3)cnn2c1N (stereo partly drawn) [Compound 6.23, 1-((1R,3s,5S)-3-(3-(6-(1H-imidazol-2-yl)pyridin-3-yl)-6-acetyl-7-aminopyrazolo[1,5-a]pyrimidin-5-yl)-8-azabicyclo[3.2.1]octan-8-yl)-2-fluoropropan-1-one] | 100 to 1000 nM | 1 to 100 nM
CNC(=O)N1[C@@H]2CC[C@H]1C[C@H](c1nc3c(-c4ccc(-c5ncc[nH]5)nc4)cnn3c(N)c1C(C)=O)C2 [Compound 6.24, (1R,3s,5S)-3-(3-(6-(1H-imidazol-2-yl)pyridin-3-yl)-6-acetyl-7-aminopyrazolo[1,5-a]pyrimidin-5-yl)-N-methyl-8-azabicyclo[3.2.1]octane-8-carboxamide] | 1 to 100 nM | 1 to 100 nM
COC(=O)N1[C@@H]2CC[C@H]1C[C@H](c1nc3c(-c4ccc(-c5ncc[nH]5)nc4)cnn3c(N)c1C(C)=O)C2 [Compound 6.25, (1R,3s,5S)-methyl 3-(3-(6-(1H-imidazol-2-yl)pyridin-3-yl)-6-acetyl-7-aminopyrazolo[1,5-a]pyrimidin-5-yl)-8-azabicyclo[3.2.1]octane-8-carboxylate] | 1 to 100 nM | 1 to 100 nM
CC(=O)c1c([C@@H]2C[C@H]3CC[C@@H](C2)N3C(=O)CO)nc2c(-c3ccc(-c4ncc(C)[nH]4)nc3)cnn2c1N [Compound 6.26, 1-((1R,3s,5S)-3-(6-acetyl-7-amino-3-(6-(5-methyl-1H-imidazol-2-yl)pyridin-3-yl)pyrazolo[1,5-a]pyrimidin-5-yl)-8-azabicyclo[3.2.1]octan-8-yl)-2-hydroxyethanone] | 1 to 100 nM | 1 to 100 nM
Cc1cnc(-c2ccc(-c3cnn4c(N)c(C5CC5)c([C@@H]5C[C@H]6CC[C@@H](C5)N6C(=O)CO)nc34)cn2)[nH]1 [Compound 6.27, 1-((1R,3s,5S)-3-(7-amino-6-cyclopropyl-3-(6-(5-methyl-1H-imidazol-2-yl)pyridin-3-yl)pyrazolo[1,5-a]pyrimidin-5-yl)-8-azabicyclo[3.2.1]octan-8-yl)-2-hydroxyethanone] | 1 to 100 nM | 1 to 100 nM
CC(=O)c1c([C@@H]2C[C@H]3CC[C@@H](C2)N3C(N)=O)nc2c(-c3ccc(-c4ncc[nH]4)nc3)cnn2c1N [Compound 6.30, (1R,3s,5S)-3-(3-(6-(1H-imidazol-2-yl)pyridin-3-yl)-6-acetyl-7-aminopyrazolo[1,5-a]pyrimidin-5-yl)-8-azabicyclo[3.2.1]octane-8-carboxamide] | 1 to 100 nM | 1 to 100 nM
NC(=O)N1[C@@H]2CC[C@H]1C[C@H](c1nc3c(-c4ccc(-c5ncc[nH]5)nc4)cnn3c(N)c1C1CC1)C2 [Compound 6.31, (1R,3s,5S)-3-(3-(6-(1H-imidazol-2-yl)pyridin-3-yl)-7-amino-6-cyclopropylpyrazolo [1,5-a]pyrimidin-5-yl)-8-azabicyclo[3.2.1]octane-8-carboxamide] | 1 to 100 nM | 1 to 100 nM
Cc1nc(-c2ccc(-c3cnn4c(N)c(C5CC5)c([C@@H]5C[C@H]6CC[C@@H](C5)N6C(=O)CO)nc34)cn2)[nH]c1C [Compound 6.32, 1-((1R,3s,5S)-3-(7-amino-6-cyclopropyl-3-(6-(4,5-dimethyl-1H-imidazol-2-yl)pyridin-3-yl)pyrazolo[1,5-a]pyrimidin-5-yl)-8-azabicyclo[3.2.1]octan-8-yl)-2-hydroxyethanone] | 100 to 1000 nM | 1 to 100 nM
CS(=O)(=O)c1c([C@@H]2C[C@H]3CC[C@@H](C2)N3C(=O)CO)nc2c(-c3ccc(-c4ncc[nH]4)cc3)cnn2c1N [Compound 6.35, 1-((1R,3s,5S)-3-(3-(4-(1H-imidazol-2-yl)phenyl)-7-amino-6-(methylsulfonyl)pyrazolo [1,5-a]pyrimidin-5-yl)-8-azabicyclo[3.2.1]octan-8-yl)-2-hydroxyethanone] | 100 to 1000 nM | 1 to 100 nM
